Reference: article PMC11375437, “Selective labelling of GBA2 in cells with fluorescent β-D-arabinofuranosyl cyclitol aziridines” (Chemical Science, 2024)
Where “and” joins values, the source holds several entries; their conditions need not be identical. Identical values can stand only once. Like-named read-outs stand apart in the source and are kept apart here.

Biological target: T1, rhGBA1 (imiglucerase) (Homo sapiens, UniProt P04062, R534H)
T1 construct: purchased Sanofi Genzyme (gift) Cerezyme®
T1 sequence (P04062 40-536 R534H): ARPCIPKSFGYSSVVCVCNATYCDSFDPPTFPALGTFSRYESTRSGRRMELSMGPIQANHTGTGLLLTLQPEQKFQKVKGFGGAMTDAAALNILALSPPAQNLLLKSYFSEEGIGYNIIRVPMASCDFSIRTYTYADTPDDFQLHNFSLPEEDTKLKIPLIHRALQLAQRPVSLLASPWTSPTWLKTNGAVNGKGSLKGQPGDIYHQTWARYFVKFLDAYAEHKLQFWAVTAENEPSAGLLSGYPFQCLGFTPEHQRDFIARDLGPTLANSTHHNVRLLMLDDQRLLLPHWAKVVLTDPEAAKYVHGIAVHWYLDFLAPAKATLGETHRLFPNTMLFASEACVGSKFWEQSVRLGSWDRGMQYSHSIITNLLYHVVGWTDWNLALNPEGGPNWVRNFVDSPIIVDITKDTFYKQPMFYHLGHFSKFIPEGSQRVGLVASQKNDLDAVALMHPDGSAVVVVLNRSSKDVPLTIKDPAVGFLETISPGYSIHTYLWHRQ
Experiment: 4MU fluorogenic substrate assay for apparent IC50, rhGBA1
Assay type: biochemical
Details: 30 min pre-incubation, 4MU-β-D-Glc
From the text: To identify an ABP that selectively labels human GBA2 over GBA1 and GBA3, a library of cyclophellitol-based ABPs with varying configurations (ESI Fig. S1 ^†) was screened for their selectivity towards human retaining β-glucosidases. For this purpose, we initially assessed the inhibition properties of the compounds using recombinant human GBA1 (rhGBA1, imiglucerase), lysates of cells overexpressing GBA2 or GBA3 (both in combination with knockout of the other retaining β-glucosidases). In a preliminary screen, enzymes were pre-incubated for 30 min with the tested compounds, followed by the addition of the fluorogenic substrate, 4MU-β-D-Glc, and subsequent quantification of released fluorescent 4MU after 30 minutes. This screening brought our attention to a new set of β-D-Araf cyclitol aziridines as potential GBA2 inhibitors. […] On the other hand, the biotin-tagged β-D-Araf compound 6 is a poor inhibitor of all three glucosidases (apparent IC50 > 8 μM). Arabinofuranosyl cyclitol 12–20 with various configurations (α-L-Araf and β-L-Araf) were also evaluated (ESI Fig. S1 ^†).
Recombinant human GBA1 (rhGBA1, Imiglucerase) was kindly provided by Sanofi Genzyme (Cambridge, MA, USA). 4-Methylumbelliferyl-β-D-glucopyranoside substrates were purchase from Glycosynth (Warrington Cheshire, UK). Protein concentration was measured using the Pierce BCA assay kit (Thermo Fisher Scientific, Waltham, MA, USA). Harvested cells (cell pellets), cell lysates and tissue homogenates not used directly were stored at -80 °C. […]
2.5 4MU fluorogenic substrate assay for apparent IC50 determination
4MU fluorogenic substrate assays (using recombination human rhGBA1 or lysates of HEK293T cells) were conducted in 96-well plates at 37 °C. Samples were diluted with McIlvaine buffer (150 mM citric acid-Na2HPO4) to a final volume of 25 μL, at the appropriate pH for each enzyme. Assays were performed by incubating the samples with 100 μL 4-methylumbelliferyl-β-D-glucopyranoside substrate diluted in McIlvaine buffer for a period of 30 min. Enzyme activities and apparent IC50 values were determined by subtraction of the background (measured for incubations without enzyme) as previously described.4 The substrate mixtures used for each enzyme were as follows:
GBA1: 3.75 mM 4-MU-β-D-glucopyranoside in McIlvaine buffer (150 mM, pH 5.2, supplemented with 0.2% (w/v) sodium taurocholate, 0.1% (v/v) Triton X-100, 0.1% (w/v) bovine serum albumin (BSA)); GBA2: 3.75 mM 4 MU-β-D-glucopyranoside in McIlvaine buffer (150 mM, pH 5.8); GBA3: 3.75 mM 4-MU-β-D-glucopyranoside in McIlvaine buffer (150 mM, pH 6.0). To determine apparent IC50: For GBA1, 3.16 ng (53 fmol) of rhGBA1 (recombinant human GBA1, Imiglucerase) was prepared in 12.5 μL McIlvaine buffer (150 mM, pH 5.2, supplemented with 0.1% (v/v) Triton X-100, 0.2% (w/v) sodium taurocholate, and 0.1% (w/v) bovine serum albumin (BSA)). The enzyme was incubated with 12.5 μL […]
of inhibitors diluted in McIlvaine buffer (150 mM, pH 5.2) at 37 °C for 30 min or 3 h. For GBA2, lysates of GBA1/GBA2 KO HEK293T cells with GBA2 overexpression were prepared in 12.5 μL McIlvaine buffer (150 mM, pH 5.8), and incubated with 12.5 μL of inhibitors diluted in McIlvaine buffer (150 mM, pH 5.8) at 37 °C for 30 min or 3 h. For GBA3, lysates of GBA1/GBA2 KO HEK293T cells with GBA3 overexpression were prepared in 12.5 μL McIlvaine buffer (150 mM, pH 6.0), and incubated with 12.5 μL of inhibitors diluted in McIlvaine buffer (150 mM, pH 6.0) at 37 °C for 30 min or 3 h. Subsequently, the samples were incubated with 100 μL 4-methylumbelliferyl-β-D-glucopyranoside substrates dissolved in McIlvaine buffer described above for a period of 30 min. After stopping the enzyme reaction with 200 μL 1 M NaOH-glycine (pH 10.3), 4-methylumbelliferone fluorescence was measured with a fluorimeter LS55 (Perkin Elmer, Waltham, MA, USA) with λEX 366 nm and λEM 445 nm. The IC50 value was calculated using Graphpad Prism 9.0 with the Nonlinear regression (curve fit) - […]

[1] = imiglucerase (Cerezyme), pH 5.2, n = 3 for β-D-Araf, n = 1 for α-L-Araf and β-L-Araf, read-out: Apparent IC50 rhGBA1

Structure (SMILES) | IC50 [1] | IC50 (read-out: Apparent IC50 GBA1) [nM]
COc1ccc(C2=[N+]3C(=C(CCCCc4cn(CCCCCCCCN5[C@@H]6[C@H](CO)[C@@H](O)[C@H](O)[C@@H]65)nn4)c4ccc(-c5ccc(OC)cc5)n4[B-]3(F)F)C=C2)cc1 (some centres unmarked) [ABP 4] | 1780 ± 71 nM | 
CC1=CC(C)=[N+]2C1=C(CCCCc1cn(CCCCCCCCN3[C@@H]4[C@H](CO)[C@@H](O)[C@H](O)[C@@H]43)nn1)c1c(C)cc(C)n1[B-]2(F)F (some centres unmarked) [ABP 3] | 4290 ± 157 nM | 
OC[C@@H]1[C@@H](O)[C@H](O)[C@@H]2N[C@H]12 [Compound 1, β-D-Arabinofuranosyl cyclitol aziridine] | > 50000 nM | > 50000
[N-]=[N+]=NCCCCCCCCN1[C@@H]2[C@H](CO)[C@@H](O)[C@H](O)[C@@H]21 (stereo partly drawn) [Compound 2, β-D-arabinofuranosyl cyclitol aziridine-azidooctyl] | 2730 nM | 
O=C(CCCC[C@@H]1SC[C@@H]2NC(=O)N[C@@H]21)NCc1cn(CCCCCCCCN2[C@@H]3[C@H](CO)[C@@H](O)[C@H](O)[C@@H]32)nn1 (some centres unmarked) [ABP 6] | 10700 ± 786 nM | > 8000
CN1/C(=C/C=C/C=C/C2=[N+](CCCCCC(=O)NCc3cn(CCCCCCCCN4[C@@H]5[C@H](CO)[C@@H](O)[C@H](O)[C@@H]54)nn3)c3ccccc3C2(C)C)C(C)(C)c2ccccc21 (some centres unmarked) [ABP 5] | 250 to 300 nM and 295 nM | 
